Experimental data from ChEMBL document CHEMBL4007467, “Effects of 6-paradol, an unsaturated ketone from gingers, on cytochrome P450-mediated drug metabolism” (Bioorg Med Chem Lett, 2017).

Key:
Type in all cases: ADME
[1] = target: T1, CYP1A2 (Homo sapiens, UniProt P05177); test: Inhibition of CYP1A2 in human liver microsomes assessed as enzyme-mediated metabolite formation at 10 uM using phenacetin as substrate incubated for 5 mins followed by NADPH addition measured after 30 mins by LC-MS/MS analysis relative to control; set-up: scale not given: the % may be the effect or the level left; conditions: probe phenacetin, read-out: Activity
T1 sequence (P05177 whole entry): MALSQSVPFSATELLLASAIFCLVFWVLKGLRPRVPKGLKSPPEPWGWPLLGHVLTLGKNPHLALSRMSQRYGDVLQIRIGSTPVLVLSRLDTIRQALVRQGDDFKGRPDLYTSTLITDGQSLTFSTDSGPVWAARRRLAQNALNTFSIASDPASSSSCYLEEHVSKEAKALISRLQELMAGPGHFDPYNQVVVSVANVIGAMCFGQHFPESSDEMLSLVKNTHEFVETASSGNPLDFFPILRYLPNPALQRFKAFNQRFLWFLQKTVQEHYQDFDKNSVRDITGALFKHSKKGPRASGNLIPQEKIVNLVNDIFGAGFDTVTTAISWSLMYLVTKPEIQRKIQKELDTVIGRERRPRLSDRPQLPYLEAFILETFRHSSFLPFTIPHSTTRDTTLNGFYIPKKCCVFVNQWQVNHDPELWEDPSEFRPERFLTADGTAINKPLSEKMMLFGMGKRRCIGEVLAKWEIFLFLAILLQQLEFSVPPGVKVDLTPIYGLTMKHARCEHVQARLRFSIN

[2] = target: T1, CYP1A2; test: Inhibition of CYP1A2 in human liver microsomes assessed as enzyme-mediated metabolite formation at 30 uM using phenacetin as substrate incubated for 5 mins followed by NADPH addition measured after 30 mins by LC-MS/MS analysis relative to control; set-up: scale not given: the % may be the effect or the level left; conditions: probe phenacetin, read-out: Activity
[3] = target: CYP2C9 (Homo sapiens, UniProt P11712); test: Inhibition of CYP2C9 in human liver microsomes assessed as enzyme-mediated metabolite formation at 30 uM using diclofenac as substrate incubated for 5 mins followed by NADPH addition measured after 30 mins by LC-MS/MS analysis relative to control; set-up: scale not given: the % may be the effect or the level left; conditions: probe diclofenac, read-out: Activity
[4] = target: T2, CYP2C19 (Homo sapiens, UniProt P33261); test: Inhibition of CYP2C19 in human liver microsomes assessed as enzyme-mediated metabolite formation at 1 uM using (S)-mephenytoin as substrate incubated for 5 mins followed by NADPH addition measured after 30 mins by LC-MS/MS analysis relative to control; set-up: scale not given: the % may be the effect or the level left; conditions: probe (S)-mephenytoin, read-out: Activity
[5] = target: T3, CYP3A4 (Homo sapiens, UniProt P08684); test: Inhibition of CYP3A4 in human liver microsomes assessed as enzyme-mediated metabolite formation at 0.1 uM using midazolam as substrate incubated for 5 mins followed by NADPH addition measured after 30 mins by LC-MS/MS analysis relative to control; set-up: scale not given: the % may be the effect or the level left; conditions: probe midazolam, read-out: Activity
[6] = target: T3, CYP3A4; test: Inhibition of CYP3A4 in human liver microsomes assessed as enzyme-mediated metabolite formation at 3 uM using midazolam as substrate incubated for 5 mins followed by NADPH addition measured after 30 mins by LC-MS/MS analysis relative to control; set-up: scale not given: the % may be the effect or the level left; conditions: probe midazolam, read-out: Activity
[7] = target: Cytochrome P450 3A4 (Homo sapiens, UniProt P08684); test: Inhibition of CYP3A4 in human liver microsomes assessed as enzyme-mediated metabolite formation using testosterone as substrate incubated for 5 mins followed by NADPH addition measured after 30 mins by LC-MS/MS analysis
[8] = target: T1, CYP1A2; test: Inhibition of CYP1A2 in human liver microsomes assessed as enzyme-mediated metabolite formation at 1 uM using phenacetin as substrate preincubated for 20 mins followed by substrate addition measured after 30 mins in presence of NADPH by LC-MS/MS analysis relative to control; set-up: scale not given: the % may be the effect or the level left; conditions: probe phenacetin, read-out: Activity
[9] = target: T4, Cytochrome P450 1A2 (Homo sapiens, UniProt P05177); test: Inhibition of CYP1A2 in human liver microsomes using phenacetin as substrate preincubated for 20 mins followed by substrate addition measured after 30 mins in presence of NADPH by LC-MS/MS analysis
T4 sequence (P05177 whole entry): T1 sequence (P05177 whole entry)

[10] = target: T5, CYP2B6 (Homo sapiens, UniProt P20813); test: Inhibition of CYP2B6 in human liver microsomes assessed as enzyme-mediated metabolite formation at 0.3 uM using bupropion as substrate preincubated for 20 mins followed by substrate addition measured after 30 mins in presence of NADPH by LC-MS/MS analysis relative to control; set-up: scale not given: the % may be the effect or the level left; conditions: probe bupropion, read-out: Activity
T5 sequence (P20813 whole entry): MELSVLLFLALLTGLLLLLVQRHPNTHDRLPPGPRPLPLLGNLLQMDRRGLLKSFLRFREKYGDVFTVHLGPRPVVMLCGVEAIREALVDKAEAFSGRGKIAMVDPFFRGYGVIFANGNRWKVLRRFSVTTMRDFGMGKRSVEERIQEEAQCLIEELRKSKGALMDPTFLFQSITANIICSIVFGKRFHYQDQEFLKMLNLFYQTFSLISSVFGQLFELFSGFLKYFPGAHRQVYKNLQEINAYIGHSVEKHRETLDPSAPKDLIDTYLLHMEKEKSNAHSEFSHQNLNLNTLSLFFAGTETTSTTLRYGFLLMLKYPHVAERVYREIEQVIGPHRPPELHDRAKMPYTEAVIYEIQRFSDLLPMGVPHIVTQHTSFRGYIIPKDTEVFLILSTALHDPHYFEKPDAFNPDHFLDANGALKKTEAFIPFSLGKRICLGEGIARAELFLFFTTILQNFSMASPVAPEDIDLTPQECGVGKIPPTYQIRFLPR

[11] = target: T2, CYP2C19; test: Inhibition of CYP2C19 in human liver microsomes assessed as enzyme-mediated metabolite formation at 0.1 uM using (S)-mephenytoin as substrate preincubated for 20 mins followed by substrate addition measured after 30 mins in presence of NADPH by LC-MS/MS analysis relative to control; set-up: scale not given: the % may be the effect or the level left; conditions: probe (S)-mephenytoin, read-out: Activity
[12] = target: T2, CYP2C19; test: Inhibition of CYP2C19 in human liver microsomes assessed as enzyme-mediated metabolite formation at 3 uM using (S)-mephenytoin as substrate preincubated for 20 mins followed by substrate addition measured after 30 mins in presence of NADPH by LC-MS/MS analysis relative to control; set-up: scale not given: the % may be the effect or the level left; conditions: probe (S)-mephenytoin, read-out: Activity
[13] = target: Cytochrome P450 2D6 (Homo sapiens, UniProt P10635); test: Inhibition of CYP2D6 in human liver microsomes using dextromethorphan as substrate preincubated for 20 mins followed by substrate addition measured after 30 mins in presence of NADPH by LC-MS/MS analysis
[14] = target: T3, CYP3A4; test: Inhibition of CYP3A4 in human liver microsomes assessed as enzyme-mediated metabolite formation at 3 uM using midazolam as substrate preincubated for 20 mins followed by substrate addition measured after 30 mins in presence of NADPH by LC-MS/MS analysis relative to control; set-up: scale not given: the % may be the effect or the level left; conditions: probe midazolam, read-out: Activity
[15] = target: T3, CYP3A4; test: Inhibition of CYP3A4 in human liver microsomes assessed as enzyme-mediated metabolite formation at 0.3 uM using testosterone as substrate preincubated for 20 mins followed by substrate addition measured after 30 mins in presence of NADPH by LC-MS/MS analysis relative to control; set-up: scale not given: the % may be the effect or the level left; conditions: probe testosterone, read-out: Activity
[16] = target: T3, CYP3A4; test: Inhibition of CYP3A4 in human liver microsomes assessed as enzyme-mediated metabolite formation at 1 uM using testosterone as substrate preincubated for 20 mins followed by substrate addition measured after 30 mins in presence of NADPH by LC-MS/MS analysis relative to control; set-up: scale not given: the % may be the effect or the level left; conditions: probe testosterone, read-out: Activity

T3 sequence (P08684 whole entry): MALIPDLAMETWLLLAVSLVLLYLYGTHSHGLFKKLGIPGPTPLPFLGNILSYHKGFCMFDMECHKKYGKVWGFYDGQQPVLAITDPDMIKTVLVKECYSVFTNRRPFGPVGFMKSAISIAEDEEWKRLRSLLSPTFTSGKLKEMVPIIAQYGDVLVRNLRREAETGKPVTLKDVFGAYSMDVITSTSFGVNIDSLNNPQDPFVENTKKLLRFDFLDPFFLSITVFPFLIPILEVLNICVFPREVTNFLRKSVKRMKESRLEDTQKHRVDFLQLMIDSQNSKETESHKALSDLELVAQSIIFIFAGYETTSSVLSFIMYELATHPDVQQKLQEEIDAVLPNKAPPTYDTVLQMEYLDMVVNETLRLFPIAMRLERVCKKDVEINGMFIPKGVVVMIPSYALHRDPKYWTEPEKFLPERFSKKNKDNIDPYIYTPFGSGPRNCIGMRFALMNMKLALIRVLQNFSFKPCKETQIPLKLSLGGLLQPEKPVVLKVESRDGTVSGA
T2 sequence (P33261 whole entry): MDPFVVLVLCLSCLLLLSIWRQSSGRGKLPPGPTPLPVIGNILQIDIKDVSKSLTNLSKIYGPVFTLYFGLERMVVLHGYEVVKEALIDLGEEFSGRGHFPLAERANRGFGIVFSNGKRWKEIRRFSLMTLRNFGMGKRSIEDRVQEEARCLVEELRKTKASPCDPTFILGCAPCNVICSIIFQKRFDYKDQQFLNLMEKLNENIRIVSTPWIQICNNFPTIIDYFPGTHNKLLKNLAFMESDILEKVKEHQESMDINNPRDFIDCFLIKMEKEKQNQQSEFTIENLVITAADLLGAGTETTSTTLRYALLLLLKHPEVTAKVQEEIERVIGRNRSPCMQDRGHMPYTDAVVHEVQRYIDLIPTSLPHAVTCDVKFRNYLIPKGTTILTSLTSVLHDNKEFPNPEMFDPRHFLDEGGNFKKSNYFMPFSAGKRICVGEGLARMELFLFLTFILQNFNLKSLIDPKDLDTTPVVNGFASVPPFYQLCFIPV
CYP2C9, sequence (P11712 whole entry): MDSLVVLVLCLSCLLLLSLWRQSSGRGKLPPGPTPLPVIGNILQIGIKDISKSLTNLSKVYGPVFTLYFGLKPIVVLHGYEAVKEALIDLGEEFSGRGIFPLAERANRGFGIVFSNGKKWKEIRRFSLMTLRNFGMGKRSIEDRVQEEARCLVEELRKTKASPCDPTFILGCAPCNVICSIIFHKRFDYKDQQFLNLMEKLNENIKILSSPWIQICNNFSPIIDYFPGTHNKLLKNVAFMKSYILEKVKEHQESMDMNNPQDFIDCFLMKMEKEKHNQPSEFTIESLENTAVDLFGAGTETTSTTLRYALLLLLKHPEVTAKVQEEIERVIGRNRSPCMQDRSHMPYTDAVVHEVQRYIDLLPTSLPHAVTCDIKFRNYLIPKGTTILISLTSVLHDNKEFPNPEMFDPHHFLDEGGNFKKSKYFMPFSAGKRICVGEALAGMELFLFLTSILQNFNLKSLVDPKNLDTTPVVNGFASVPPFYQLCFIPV
Cytochrome P450 2D6, sequence (P10635 whole entry): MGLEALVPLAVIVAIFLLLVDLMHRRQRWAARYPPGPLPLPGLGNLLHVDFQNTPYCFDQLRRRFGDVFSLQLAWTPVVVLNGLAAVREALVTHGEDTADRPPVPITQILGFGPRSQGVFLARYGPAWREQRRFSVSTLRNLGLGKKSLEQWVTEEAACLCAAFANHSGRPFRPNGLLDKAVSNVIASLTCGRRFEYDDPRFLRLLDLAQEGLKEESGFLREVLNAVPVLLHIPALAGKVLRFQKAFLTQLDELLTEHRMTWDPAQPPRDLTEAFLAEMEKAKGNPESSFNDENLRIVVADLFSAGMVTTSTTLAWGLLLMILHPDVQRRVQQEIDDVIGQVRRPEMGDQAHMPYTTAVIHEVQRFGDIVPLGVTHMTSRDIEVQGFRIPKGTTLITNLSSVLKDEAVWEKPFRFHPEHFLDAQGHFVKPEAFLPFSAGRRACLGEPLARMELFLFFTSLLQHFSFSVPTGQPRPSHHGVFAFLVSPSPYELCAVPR
Cytochrome P450 3A4, sequence (P08684 whole entry): as the sequence (P08684 whole entry) above

## CCCCCCCC(=O)CCc1ccc(O)c(OC)c1
[1]
  activity at 0.5 h, 10 µM: 49.7%
[2]
  activity at 0.5 h, 30 µM: 35.5%
[3]
  activity at 0.5 h, 30 µM: 30.9%
[4]
  activity at 0.5 h, 1 µM: 88.4%
[5]
  activity at 0.5 h, 0.1 µM: 109%
[6]
  activity at 0.5 h, 3 µM: 77.4%
[7]
  IC50: 30 µM
[8]
  activity at 0.5 h, 1 µM: 82.1%
[9]
  IC50: 19.6 µM
[10]
  activity at 0.5 h, 0.3 µM: 81.3%
[11]
  activity at 0.5 h, 0.1 µM: 102%
[12]
  activity at 0.5 h, 3 µM: 67.6%
[13]
  IC50: > 30 µM
[14]
  activity at 0.5 h, 3 µM: 103%
[15]
  activity at 0.5 h, 0.3 µM: 87.4%
[16]
  activity at 0.5 h, 1 µM: 89.8%
